{
  "source": "paper PMC7785802",
  "about": "“Therapeutic Efficacy of a Trichinella Spiralis Paramyosin-Derived Peptide Modified With a Membrane-Targeting Signal in Mice With Antigen-Induced Arthritis” (Frontiers in Microbiology, 2020)",
  "key": {"[1]": {"system": "human C9", "experiment": "Zn2+-induced human C9 polymerization assay", "format": "biochemical", "details": "for inhibition of Zn2+-induced C9 polymerization at 5.24 μmol: peptide 5.24 μmol", "method": "Certain concentrations of C9 can polymerize when induced by certain concentrations of Zn^2+. However, the polymerization can be suppressed when C9 binds to inhibitors. C9 polymerization assays were used to evaluate the inhibitory effect of the peptides on Zn^2+-induced polymerization of human C9. Briefly, 2 μg C9 was preincubated with the peptides in 20 mM Tris buffer (pH 7.2) at 37°C for 40 min and then 50 μM Zn^2+ was added to induce C9 polymerization at 37°C for 2 h. The samples were subjected to 2.5–15% polyacrylamide gel electrophoresis to assess the inhibitory effects of the peptides on human C9 polymerization; the gels were visualized by staining with Coomassie blue.\nFigure 1 Modified peptide bound to human complement C9 and inhibited C9 polymerization-induced bio-function. (A) Microscale thermophoresis assay (NanoTemper) in which biomolecular interactions were quantitated by examining the motion of the molecules along a microscopic temperature gradient induced by an infrared laser. Changes in the molecular hydration shell, charge, or size are measured using a fluorescent probe (NT-647) bound covalently to the human C9. Binding of control, modified and original peptides to human C9 were studied. Data points indicate the differences in normalized fluorescence (%) generated by peptides binding to […], and curves indicate the calculated fits. […] Error bars represent the standard error of three independent measurements. […] Lane M: standard protein markers; lane 1: blank control (C9 without Zn^2+); lane 2: positive control (C9 with Zn^2+); lane 3: 5.24 μmol original peptide; lanes 4–6, 1.31, 2.62, and 5.24 μmol modified peptide, respectively; lane 7, 5.24 μmol control peptide. (C) Normal human serum (NHS)-induced complement-mediated hemolysis was inhibited by the modified and original peptides (2.62 and 5.24 μmol) compared to the control peptide. All experiments were performed three times and data are presented as mean ± SD. *p < 0.05, **p < 0.01."}, "[2]": {"system": "recombinant mouse C9", "experiment": "Microscale thermophoresis (MST) binding to recombinant mouse C9", "details": "NT-647-labeled mouse C9 1.5 μM, peptides 1.68 to 0 mM, distilled water with 0.05% Tween 20, three independent measurements", "method": "To assess the binding affinity of the peptides to human or mouse complement C9, a fluorescence-based biophysical technique known as MST (NanoTemper Technologies GmbH, Germany) was used. Briefly, human or mouse C9 was fluorescently labeled using a Monolith NT™ Protein Labeling Kit NT-647 (NanoTemper Technologies GmbH, Germany) based on the manufacturer's protocol. Next, the peptides were gradiently diluted in distilled water from 1.68 to 0 mM. The labeled human or mouse C9 (1.5 μM) was then incubated with various peptide concentrations for 10 min at room temperature before being loaded into K002 silica capillaries. Measurements were performed using a NanoTemper Monolith NT.115 instrument in distilled water containing 0.05% Tween 20. The data were analyzed using NanoTemper Analysis software (NanoTemper Technologies GmbH, Germany).\nTo evaluate whether the modified peptide can cross the species barrier to inhibit murine MAC assembly in addition to human MAC assembly and to provide a preliminary experimental basis for the in vivo mouse experiments, MST assays were used again to assess the binding ability of the peptides to recombinant mouse C9. […] To evaluate whether this binding can inhibit NMS-induced erythrocyte lysis (involving the alternative complement pathway), hemolytic assays were performed.\n(A) Microscale thermophoresis assay (NanoTemper) in which biomolecular interactions are quantitated by examining the motion of the molecules along a microscopic temperature gradient induced by an infrared laser. Changes in the molecular hydration shell, charge, or size are measured using a fluorescent probe (NT-647) bound covalently to the mouse C9. Binding of control, modified and original peptides to mouse C9 were studied. […] Data points indicate the differences in normalized fluorescence (%) generated by peptides binding to mouse C9, and curves indicate the calculated fits. Error bars represent the standard error of three independent measurements. […] All experiments were performed three times and data are presented as mean ± SD. *p < 0.05, **p < 0.01."}, "[3]": {"system": "complement in normal mouse serum (NMS); rabbit erythrocytes", "experiment": "NMS-induced complement-mediated hemolysis of rabbit erythrocytes (alternative pathway)", "format": "cell-based", "details": "for inhibition of NMS-induced erythrocyte lysis: NMS 1:12.5, peptide 1.31, 2.62, 5.24 μmol, Mg-EGTA, 37°C 40 min, then rabbit erythrocytes 1 × 10^8, 30 min 37°C, absorbance 412 nm; for inhibition of NMS-induced erythrocyte lysis / inhibition of NMS-induced hemolysis compared to control peptide: three experiments; for NMS-induced erythrocyte lysis at 5.24 μmol: peptide 5.24 μmol, NMS 1:12.5; for inhibition of NMS-induced hemolysis compared to control peptide: peptide 2.62 and 5.24 μmol, *p < 0.05, **p < 0.01", "method": "Normal human serum (NHS) was collected from six healthy volunteers, and the donation procedure was approved by the Institutional Review Board (IRB) of Capital Medical University (approval number: 2016SY01). After venous blood was collected, it was clotted in serum separator tubes for 4 h at room temperature and then centrifuged at 1,000 g for 30 min to obtain the serum. The serum was divided into aliquots and stored at −80°C. To obtain normal mouse serum (NMS), blood was collected in the […] of mice under ether anesthesia and the serum was separated and stored as described above.\nWhen rabbit erythrocytes are placed in xenogeneic serum (such as NHS or NMS), the alternative pathway of the complement system is activated, causing lysis of the rabbit erythrocytes. To evaluate the effects of the peptides on the complement activation-mediated erythrocyte lysis (involving the alternative complement pathway), NHS or NMS (1:12.5) was incubated with various concentrations of peptides (1.31, 2.62, and 5.24 μmol) in Mg-EGTA solution (5 mM MgCl2, 10 mM EGTA) at 37°C for 40 min before adding the mixture to freshly washed erythrocytes (1 × 10^8) in gelatin veronal-buffered saline (pH 7.4, containing 0.1% gelatin) for 30 min at 37°C. Lysis was stopped with cold Hanks' Balanced Salt Solution (HBSS^++) containing 10 mM ethylenediaminetetraacetic acid (EDTA). The samples were then centrifuged at 1,000 g for 10 min to obtain the supernatant, and the amount of released hemoglobin in the supernatant was determined by measuring the absorbance at 412 nm. The hemolytic activity relative to the water-induced lysis among the same number of erythrocytes was calculated.\nFigure 2 Modified peptide bound to mouse complement C9 and inhibited normal mouse serum (NMS)-induced hemolysis of rabbit erythrocytes. (A) Microscale thermophoresis assay (NanoTemper) in which biomolecular interactions are quantitated by examining the motion of the molecules along a microscopic temperature gradient induced by an infrared laser. Changes in the molecular hydration shell, charge, or size are measured using a fluorescent probe (NT-647) bound covalently to the mouse C9. Binding of control, modified and original peptides to mouse C9 were studied. […] Data points indicate the differences in normalized fluorescence (%) generated by peptides binding to mouse C9, and curves indicate the calculated fits. Error bars represent the standard error of three independent measurements. (B) NMS-induced complement-mediated hemolysis was inhibited by the modified and original peptides (2.62 and 5.24 μmol) compared to the control peptide. All experiments were performed three times and data are presented as mean ± SD. *p < 0.05, **p < 0.01."}, "[4]": {"details": "2 μg C9, 50 μM Zn2+, 37°C 2 h, PAGE, Coomassie blue"}},
  "note": "“Also recorded” adds a separate entry of the source.",
  "data": [
    {"substance": "GKMSVMSVYKSVLS [control peptide, reference compound]", "values": [
      {"measurement": "inhibition of Zn2+-induced C9 polymerization at 5.24 μmol", "setting": "[1]; [4]", "value": "did not inhibit C9 polymerization"},
      {"measurement": "binding to recombinant mouse C9", "setting": "[2]", "value": "could not"},
      {"measurement": "inhibition of NMS-induced erythrocyte lysis", "setting": "[3]", "value": "no inhibitory effect"}
    ]},
    {"substance": "Myr-GSSKSPSKKKKKKPG-ACP-VSMGKSLSSKVYVM [modified peptide, Ts-pmy-derived peptide modified with a membrane-targeting signal]", "values": [
      {"measurement": "inhibition of Zn2+-induced C9 polymerization, concentration dependence", "setting": "[1]; 2 μg C9, 20 mM Tris pH 7.2, 37°C 40 min preincubation, 50 μM Zn2+ 2 h, peptide 1.31, 2.62, 5.24 μmol, 2.5–15% PAGE", "value": "inhibited Zn^2+-induced C9 polymerization in a dose-dependent manner"},
      {"measurement": "inhibition of Zn2+-induced C9 polymerization at 2.62 μmol", "setting": "[1]; peptide 2.62 μmol, 2 μg C9, 50 μM Zn2+, 37°C 2 h, PAGE, Coomassie blue", "value": "slightly"},
      {"measurement": "inhibition of Zn2+-induced C9 polymerization at 5.24 μmol", "setting": "[1]; [4]", "value": "fully inhibited; also recorded: completely"},
      {"measurement": "binding to recombinant mouse C9", "setting": "[2]", "value": "could bind to the recombinant mouse C9; also recorded: concentration-dependent binding"},
      {"measurement": "inhibition of NMS-induced erythrocyte lysis", "setting": "[3]", "value": "inhibited in a dose-dependent manner"},
      {"measurement": "NMS-induced erythrocyte lysis at 5.24 μmol", "setting": "[3]", "value": "reduced, to a similar level to the NHS-induced erythrocyte lysis"},
      {"measurement": "inhibition of NMS-induced hemolysis compared to control peptide", "setting": "[3]", "value": "inhibited"}
    ]},
    {"substance": "VSMGKSLSSKVYVM [original peptide, tetradecapeptide derived from Trichinella spiralis paramyosin (Ts-pmy)]", "values": [
      {"measurement": "inhibition of Zn2+-induced C9 polymerization at 5.24 μmol", "setting": "[1]; [4]", "value": "fully inhibited"},
      {"measurement": "binding to recombinant mouse C9", "setting": "[2]", "value": "could bind to the recombinant mouse C9; also recorded: concentration-dependent binding"},
      {"measurement": "inhibition of NMS-induced erythrocyte lysis", "setting": "[3]", "value": "inhibited in a dose-dependent manner"},
      {"measurement": "NMS-induced erythrocyte lysis at 5.24 μmol", "setting": "[3]", "value": "reduced, to a similar level to the NHS-induced erythrocyte lysis"},
      {"measurement": "inhibition of NMS-induced hemolysis compared to control peptide", "setting": "[3]", "value": "inhibited"}
    ]}
  ]
}
